In this experiment the target is T1, Interleukin-1 receptor-associated kinase 4 (Homo sapiens, UniProt Q9NWZ3).
T1 sequence (Q9NWZ3 whole entry): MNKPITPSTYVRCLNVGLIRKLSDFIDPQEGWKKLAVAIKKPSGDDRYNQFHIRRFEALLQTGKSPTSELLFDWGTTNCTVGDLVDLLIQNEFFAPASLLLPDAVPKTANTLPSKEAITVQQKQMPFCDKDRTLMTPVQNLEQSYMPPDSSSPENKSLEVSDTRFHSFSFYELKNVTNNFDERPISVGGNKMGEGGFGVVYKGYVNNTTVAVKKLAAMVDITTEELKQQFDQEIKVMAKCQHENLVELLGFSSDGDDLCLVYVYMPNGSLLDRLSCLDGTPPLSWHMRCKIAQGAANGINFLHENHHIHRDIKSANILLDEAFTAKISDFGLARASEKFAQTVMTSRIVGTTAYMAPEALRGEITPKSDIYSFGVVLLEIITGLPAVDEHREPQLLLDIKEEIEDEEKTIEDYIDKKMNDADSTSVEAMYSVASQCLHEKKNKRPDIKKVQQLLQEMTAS
Briefly: IRAK4 Kinase Assay: For the assay, 11 different concentrations in the range from 20 μM to 0.073 nM were prepared from a 2 mM DMSO solution of the test substance. 50 nl of the respective solution were pipetted into a black low-volume 384-well microtitre plate (Greiner Bio-One, Frickenhausen, Germany), 2 μl of a solution of IRAK4 in assay buffer [50 mM HEPES pH 7.5, 5 mM MgCl2, 1.0 mM ….

For the compound `COCCn1cc2cc(NC(=O)c3cccc(C(F)(F)F)n3)c(CO)cc2n1`, the IC50 was determined as 136 nM.

The values are drawn from ChEMBL document CHEMBL5727056, “Substituted indazoles, methods for the production thereof, pharmaceutical preparations that contain said new substituted indazoles, and use of said new substituted indazoles to produce drugs” (2019).
